Measurements: patent publication US20250320228A1, “PYRIDO[3,2-D]PYRIMIDINES AS HPK1 INHIBITORS” (Merck Patent GmbH, priority 2022, published 2025)

Columns and labels:
[1] = molecular target: full-length human HPK1 (MAP4K1) (Homo sapiens (Human), UniProt Q92918); test: HPK1 kinase assay (biochemical, ADP-Glo); details: GST-HPK1 3.2 nM, 10 μM ATP, MBP substrate, ADP-Glo; read-out: HPK1 enzymatic IC50
Excerpt: HPK1 kinase assay (Biochemical assay).
A recombinant fusion protein consisting of full-length human HPK1 (MAP4K1) with an N-terminal Glutatione S-transferase (GST) tag was produced in insect cells Sf21 using the baculovirus expression system. GST-HPK1 protein was purified from cell lysates by glutathione Sepharose affinity chromatography. The assay is run in three continuous steps: 1) the HPK1 enzymatic kinase reaction, 2) an ATP depletion, and 3) the ADP detection, the steps 2 and 3 are performed with ADP-Glo™ Kinase Assay kit from Promega (V9101). Test compounds were prepared by 10-point serial dilution in dimethyl sulfoxide (DMSO) and 100 nL of each dilution was spotted onto a 384-well Optiplate (Perkin Elmer and Cat #6007299) by Labcyte Echo. 5 μL kinase reaction buffer (0.02% Brij-35, 2 mM DTT, 50 mM HEPES pH 7.5, MgCl2 10 mM, BSA 0.01% and β-glycerophosphate 12.5 mM) containing HPK1 (3.2 nM) enzyme was transferred to each well and incubated for 15 minutes at room temperature at 60% humidity. The enzymatic reaction was started by adding 5 μl of Start-Mix (10 μM ATP and 3.235 μM MBP). After 120 minutes, the reaction was stopped by adding 5 μL of ADP-Glo reagent (Promega, V9101) and incubating for 40 min. in the dark at 23° C. To determine the level of ADP, 10 μl ADP-Glo Detection solution was added and incubated for 1 hour at 23° C. in the dark. The plate was transferred to a Perkin Elmer EnVision (2104 Multilabel Reader) for luminescence detection and percent inhibition activity and IC50 value were determined using Genedata Screener.

HPK1 pSLP76 (Ser376) = test: Cellular assay phospho-SLP-76 (Ser376); type: cell-based, human; details: SLP76 Ser376 phosphorylation after αCD3/αCD28 stimulation; Jurkat (human) or EL-4 (mouse) cells, table does not say which; read-out: HPK1 pSLP76 IC50
Procedure: Cellular Assay—Phospho-SLP-76 (Ser376).
Inhibition of HPK1 enzymatic activity in cells was determined by detection of SLP76 phosphorylation at Ser376 residue in lysate from Jurkat (human) and EL-4 (mouse) cells. Jurkat and EL-4 cells express both HPK1 and SLP76 naturally. All cells were cultured in RPMI 1640 media containing 10% heat inactivated fetal bovine serum (FBS) and 1× Penicillin-Streptomycin. In either Jurkat or El-4 assay, cells were pre-incubated with test compounds prior to T cell stimulation by respective αCD3/αCD28 Dynabeads™. For detection, plates were read on the Envision and percent inhibition and IC50 were determined by Smart fit in Genedata Analyzer.
For Jurkat cells: 35 μL cell suspension were dispensed at a density of 30,000 cells/well in 384-well plates containing HBSS (Gibco, 14025076)+0.1% BSA). 10-point logarithmic serial dilution of test compounds in DMSO were prepared by a Hamilton automated liquid handling robot and 35 nL was transferred into each well by an Echo liquid handler. After 60 min. pre-incubation, the cells were stimulated by adding 5 μL human T activator αCD3/αCD28 Dynabeads™ (Gibco, 11132D) at 1.2×107 beads/ml for 15 minutes at 37° C. Detection of Ser376 phosphorylation status was accomplished by first adding 10 μL of 5× AlphaLISA lysis buffer (Perkin Elmer, ALSU-PSLP-A500) to each well of the cell plate using a Multidrop Combi (5840300), followed by 20 minutes shaking. 10 μL cell lysate from each treatment were then transferred to a white 384-well plate (Corning 3572) and incubated with AlphaLISA acceptor beads for one hour (AlphaLISA SureFire Ultra p-SLP76 (Ser376), Perkin Elmer, ALSU-PSLP-A500), and donor beads for additional 2 hours at room temperature in the dark. […]

Sequence of full-length human HPK1 (MAP4K1) (Q92918 whole entry): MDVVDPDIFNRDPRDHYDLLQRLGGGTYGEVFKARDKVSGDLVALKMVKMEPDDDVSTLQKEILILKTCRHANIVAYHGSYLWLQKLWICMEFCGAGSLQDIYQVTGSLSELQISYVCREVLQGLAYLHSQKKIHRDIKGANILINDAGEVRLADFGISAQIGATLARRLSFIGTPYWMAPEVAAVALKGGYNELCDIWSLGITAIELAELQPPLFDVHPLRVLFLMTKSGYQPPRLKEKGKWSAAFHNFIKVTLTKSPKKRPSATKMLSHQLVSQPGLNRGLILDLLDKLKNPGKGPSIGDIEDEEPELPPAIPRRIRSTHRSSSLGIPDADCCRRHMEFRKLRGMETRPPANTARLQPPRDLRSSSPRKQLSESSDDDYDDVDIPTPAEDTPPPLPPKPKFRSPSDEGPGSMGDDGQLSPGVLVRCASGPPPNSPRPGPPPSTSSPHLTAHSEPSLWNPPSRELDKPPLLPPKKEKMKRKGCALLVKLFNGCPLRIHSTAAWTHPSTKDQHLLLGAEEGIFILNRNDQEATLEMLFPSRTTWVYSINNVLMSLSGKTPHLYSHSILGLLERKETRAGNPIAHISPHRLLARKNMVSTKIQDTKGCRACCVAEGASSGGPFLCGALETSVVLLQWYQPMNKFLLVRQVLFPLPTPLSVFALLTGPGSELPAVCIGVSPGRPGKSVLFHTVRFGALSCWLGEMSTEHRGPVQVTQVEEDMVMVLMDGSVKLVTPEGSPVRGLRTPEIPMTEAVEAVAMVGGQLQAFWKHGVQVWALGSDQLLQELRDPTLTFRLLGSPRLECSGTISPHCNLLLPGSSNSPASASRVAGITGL

| SMILES | IC50 [1] [nM] | IC50 (HPK1 pSLP76 (Ser376)) [nM] |
| --- | --- | --- |
| C[C@@H](c1ccc(-c2cc(C(N)=O)c3ncnc(N[C@H]4CCCNC4)c3n2)cc1)N1CCOCC1 (single isomer, unassigned) [Example 53] | < 100 | 500 to 1000 |
| NC(=O)c1cc(C=C2CCOC2)nc2c(N[C@H]3CCCNC3)ncnc12 (stereo in doubt) [Example 80, 6-{[(3Z)-oxolan-3-ylidene]methyl}-4-{[(3S)-piperidin-3-yl]amino}pyrido[3,2-d]pyrimidine-8-carboxamide] | 100 to 1000 |  |
| CC(C)(O)COc1ccc(-c2cc(C(N)=O)c3ncnc(N[C@@H]4CNC[C@@H](F)C4)c3n2)c(C#N)c1 [Example 1, 6-(2-cyano-4-(2-hydroxy-2-methylpropoxy)phenyl)-4-(((3S,5S)-5-fluoropiperidin-3-yl)amino)pyrido[3,2-d]pyrimidine-8-carboxamide] | < 100 | < 500 |
| N#Cc1c(-c2cc(C(N)=O)c3ncnc(N[C@@H]4CNC[C@@H](F)C4)c3n2)ccc2ncccc12 [Example 2, 6-(5-cyanoquinolin-6-yl)-4-{[(3S,5S)-5-fluoropiperidin-3-yl]amino}pyrido[3,2-d]pyrimidine-8-carboxamide] | < 100 |  |
| Cc1nn(C)cc1-c1cc(C(N)=O)c2ncnc(N[C@@H]3CNC[C@@H](F)C3)c2n1 [Example 3, 6-(1,3-dimethyl-1H-pyrazol-4-yl)-4-(((3S,5S)-5-fluoropiperidin-3-yl)amino)pyrido[3,2-d]pyrimidine-8-carboxamide] | < 100 | < 500 |
| NC(=O)c1cc(-c2cnn(C3CCOCC3)c2)nc2c(N[C@@H]3CNC[C@@H](F)C3)ncnc12 [Example 4, 4-(((3S,5S)-5-fluoropiperidin-3-yl)amino)-6-(1-(tetrahydro-2H-pyran-4-yl)-1H-pyrazol-4-yl)pyrido[3,2-d]pyrimidine-8-carboxamide] | < 100 | 500 to 1000 |
| CC(=O)c1ccc(-c2cc(C(N)=O)c3ncnc(N[C@@H]4CNC[C@@H](F)C4)c3n2)s1 [Example 5, 6-(5-acetylthiophen-2-yl)-4-(((3S,5S)-5-fluoropiperidin-3-yl)amino)pyrido[3,2-d]pyrimidine-8-carboxamide] | < 100 | < 500 |
| Cc1cc(-c2cc(C(N)=O)c3ncnc(N[C@@H]4CNC[C@@H](F)C4)c3n2)sn1 [Example 6, 4-{[(3S,5S)-5-fluoropiperidin-3-yl]amino}-6-(3-methyl-1,2-thiazol-5-yl)pyrido[3,2-d]pyrimidine-8-carboxamide] | < 100 |  |
| Cn1cc(-c2cc(C(N)=O)c3ncnc(N[C@@H]4CNC[C@@H](F)C4)c3n2)cc1C#N [Example 7, 6-(5-cyano-1-methyl-1H-pyrrol-3-yl)-4-{[(3S,5S)-5-fluoropiperidin-3-yl]amino}pyrido[3,2-d]pyrimidine-8-carboxamide] | < 100 | < 500 |
| N#Cc1cc(C(F)F)ccc1-c1cc(C(N)=O)c2ncnc(N[C@@H]3CNCC(F)(F)C3)c2n1 [Example 10, (S)-6-(2-cyano-4-(difluoromethyl)phenyl)-4-((5,5-difluoropiperidin-3-yl)amino)pyrido[3,2-d]pyrimidine-8-carboxamide] | 100 to 1000 |  |
| COc1ccc(-c2cc(C(N)=O)c3ncnc(N[C@@H]4CNCC(F)(F)C4)c3n2)cc1 [Example 11, (S)-4-((5,5-difluoropiperidin-3-yl)amino)-6-(4-methoxyphenyl)pyrido[3,2-d]pyrimidine-8-carboxamide] | 100 to 1000 |  |
| N#C[C@H]1COCCN1Cc1ccc(-c2cc(C(N)=O)c3ncnc(N[C@H]4CCCNC4)c3n2)cc1 [Example 14] |  | > 1000 |
| NC(=O)c1cc(-c2ccc(CN3CCOC[C@H]3C(F)(F)F)cc2)nc2c(N[C@H]3CCCNC3)ncnc12 [Example 15] |  | < 500 |
| COCCn1cc(-c2cc(C(N)=O)c3ncnc(N[C@H]4CCCNC4)c3n2)cn1 [Example 19, (S)-6-(1-(2-methoxyethyl)-1H-pyrazol-4-yl)-4-(piperidin-3-ylamino)pyrido[3,2-d]pyrimidine-8-carboxamide] | < 100 |  |
| NC(=O)c1cc(-c2ccc(CN3CCOCC3)cc2)nc2c(NC34CNCC3C4)ncnc12 (stereo not drawn) [Example 20] |  | > 1000 |
| NC(=O)c1cc(-c2ccc(CN3CCOCC3)cc2)nc2c(N[C@H]3CCCCNC3)ncnc12 [Example 21] | 100 to 1000 |  |
| NCCNc1ncnc2c(C(N)=O)cc(-c3ccc(CN4CCOCC4)cc3)nc12 [Example 23, 4-((2-aminoethyl)amino)-6-(4-(morpholinomethyl)phenyl)pyrido[3,2-d]pyrimidine-8-carboxamide] | < 100 |  |
| NC(=O)c1cc(-c2cc(F)c(OCC3(O)CCC3)c(F)c2)nc2c(N[C@H]3CCCNC3)ncnc12 [Example 39, (S)-6-(3,5-difluoro-4-((1-hydroxycyclobutyl)methoxy)phenyl)-4-(piperidin-3-ylamino)pyrido[3,2-d]pyrimidine-8-carboxamide] |  | < 500 |
| CN1CCc2cc(-c3cc(C(N)=O)c4ncnc(N[C@H]5CCCNC5)c4n3)nn2CC1=O [Example 45, (S)-6-(6-methyl-7-oxo-5,6,7,8-tetrahydro-4H-pyrazolo[1,5-d][1,4]diazepin-2-yl)-4-(piperidin-3-ylamino)pyrido[3,2-d]pyrimidine-8-carboxamide] |  | > 1000 |
| NC(=O)c1cc(-c2ccc(CN3CC[C@H](F)C3)cc2)nc2c(N[C@H]3CCCNC3)ncnc12 [Example 60, 6-(4-[[(3S)-3-fluoropyrrolidin-1-yl]methyl]phenyl)-4-[(3S)-piperidin-3-ylamino]pyrido[3,2-d]pyrimidine-8-carboxamide] | < 100 |  |
| CN1CC=C(c2cc(C(N)=O)c3ncnc(N[C@H]4CCCNC4)c3n2)CC1 [Example 73, 6-(1-methyl-1,2,3,6-tetrahydropyridin-4-yl)-4-{[(3S)-piperidin-3-yl]amino}pyrido[3,2-d]pyrimidine-8-carboxamide] | > 1000 |  |
| NC(=O)c1cc(-c2cnn(C(F)F)c2)nc2c(N[C@H]3CCCNC3)ncnc12 [Example 77, 6-[1-(difluoromethyl)-1H-pyrazol-4-yl]-4-{[(3S)-piperidin-3-yl]amino}pyrido[3,2-d]pyrimidine-8-carboxamide] | < 100 |  |
| CC(C)n1cc(-c2cc(C(N)=O)c3ncnc(N[C@H]4CCCNC4)c3n2)cn1 [Example 78, 4-{[(3S)-piperidin-3-yl]amino}-6-[1-(propan-2-yl)-1H-pyrazol-4-yl]pyrido[3,2-d]pyrimidine-8-carboxamide] | < 100 |  |
| NC(=O)c1cc(CC2CCOC2)nc2c(N[C@H]3CCCNC3)ncnc12 (stereo partly drawn) [Example 84, 6-[(oxolan-3-yl)methyl]-4-{[(3S)-piperidin-3-yl]amino}pyrido[3,2-d]pyrimidine-8-carboxamide] | > 1000 |  |
| NC(=O)c1cc(C=C2CCOCC2)nc2c(N[C@H]3CCCNC3)ncnc12 [Example 85, 6-[(oxan-4-ylidene)methyl]-4-{[(3S)-piperidin-3-yl]amino}pyrido[3,2-d]pyrimidine-8-carboxamide] | > 1000 |  |
| NC(=O)c1cc(-c2cccnc2C(F)(F)F)nc2c(N[C@H]3CCCNC3)ncnc12 [Example 87, 4-{[(3S)-piperidin-3-yl]amino}-6-[2-(trifluoromethyl)pyridin-3-yl]pyrido[3,2-d]pyrimidine-8-carboxamide] | 100 to 1000 |  |
| NC(=O)c1cc(CC2CCOCC2)nc2c(N[C@H]3CCCNC3)ncnc12 [Example 88, 6-[(oxan-4-yl)methyl]-4-{[(3S)-piperidin-3-yl]amino}pyrido[3,2-d]pyrimidine-8-carboxamide] | > 1000 |  |
